Our source for the logD values is ChEMBL document CHEMBL4732270, “Cell Permeability of Isomeric Macrocycles: Predictions and NMR Studies” (ACS Med Chem Lett, 2021).

One may read the logD as lipophilicity at a set pH, counting ionised and neutral species. Low values mean a more hydrophilic compound, high ones a more lipophilic compound.

The data set in a line: Lipophilicity, log D of compound at pH 7.4 by UPLC-MS/MS analysis. The data set is classed as physicochemical. The conditions noted are these: buffer.
Consider `COC(=O)[C@@H]1CSCc2ccccc2C(=O)OC[C@H](NC(=O)[C@@H]2CCCN2C(C)=O)CN1`, for which the pH-dependent lipophilicity (logD) came to 0.7.

The molecule `COC(=O)[C@H]1CSCc2ccccc2C(=O)OC[C@H](NC(=O)[C@@H]2CCCN2C(C)=O)CN1` gave a log distribution coefficient (logD) of 0.65. The logD values of the last two molecules are within 0.2 log units of each other.

`COC(=O)[C@@H]1CSCc2ccccc2C(=O)OC[C@@H](NC(=O)[C@@H]2CCCN2C(C)=O)CN1`: the pH-dependent lipophilicity (logD) was 0.43.

In turn, `COC(=O)[C@H]1CSCc2ccccc2C(=O)OC[C@@H](NC(=O)[C@@H]2CCCN2C(C)=O)CN1` had a pH-dependent lipophilicity (logD) of 0.6.
